Reference: patent US7348151B1, “Method for the cellular high-throughput-detection of nuclear receptor ligand interactions” (priority 1998, dated 2008)
Where two headings read alike, the source gives them in different places.

Tested on: ligand-binding domain of the human estrogen receptor (amino acids 282-595) fused to human Ha-Ras (L61) in cdc25-2 yeast cells
Assay type: cell-based
Conditions: for growth of cdc25-2-yeast cells: Glu medium + E (10^−5M)
Text: Expression of a functional, membrane-associated Ras protein fused to a nuclear receptor and/or parts of one such can be detected by the fact that the yeast cells are able to grow irrespective of the presence of a functional GEF protein at said restrictive temperatures if a suitable ligand of the expressed nuclear receptor is present.
The basic vector used is a vector with a marker gene (Ura) and a galactose-inducible promoter (GALI) for the fusion gene to be expressed. As shown diagrammatically in FIG. 2, the DNA sequence to be expressed encodes:
1. a myristylation signal,
3. the human Ha-Ras (L61) which is constitutively active and which lacks the so-called CAAX box, the farnesylation signal for membrane localization.
Conventional yeast transformation and manipulation protocols (see, for example, Hill et al. (1991), NAR 19, 5791) were used. The cells were plated out either on a glucose minimal medium which contains the necessary amino acids and nucleotides (20 mg/l histidine, 100 mg/l leucine, 20 mg/l tryptophan, 20 mg/l uracil, 10 mg/l adenine sulfate), 2% glucose, 0.5% NH4SC4, 0.17% yeast extract and 4% agar, or on galactose medium (1.7 g/l yeast nitrogen without amino acids, 5 g/l ammonium sulfate, 30 g/l galactose (>99%) 20 g/l D-raffinose, 20 g/l glycerol (100%), 30 g/l Bacto Agar).
Clones were plated out on YPD medium (1% yeast extract, 2% Bacto tryptone and 2% glucose) as control. YPD medium contains no galactose, so that there ought to be no expression of the fusion protein.
Replica platings were carried out with velvet replica plater. After transformation with the nucleic acid vector described above, the cells were plated out on glucose plates and incubated at a non-restrictive temperature of 25° C. for three to four days.

## estrogen
25° C. (non-restrictive)
  growth of cdc25-2-yeast cells: +
37° C. (restrictive), 12 to 36 h, OD 600
  growth of cdc25-2-yeast cells: −
YPD medium (no galactose, no expression of the fusion protein) with addition of estrogen, control
  cell reproduction of transformed clones: no cell reproduction
